Patent US11046716B2, “Beta-lactamase inhibitors” (priority 2015, dated 2021)
pIC50: −log10 of the molar value.

Experiments:
[1] = system: K. pneumoniae producing the Class D carbapenemase OXA-48; assay: Broth microdilution MIC assay with meropenem, K. pneumoniae OXA-48; type: cell-based; conditions: Fixed Mero (meropenem) 4 μg/mL; K. p. 11978 OXA-48
Procedure, shortened: (§1)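 CLSI broth microdilution in cation-adjusted Mueller Hinton broth measured growth of β-lactamase-expressing strains, grown 3-5 h beforehand. The β-lactam partner was held at 4 μg/ml final while test compound was titrated 2-fold from 16 to 0.125 μg/mL final. After 16-20 h at 37° C, the compound MIC was determined by eye.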

[2] = target: T1, VIM-2 (Escherichia coli, UniProt Q5U7L7); assay: β-lactamase enzyme inhibition assay, VIM-2 (nitrocefin substrate); type: biochemical; conditions: Class B; nitrocefin substrate, 486 nm; read-out: VIM-2
T1 construct: made in house; host or cells: E. coli BL21(DE3)
Procedure, shortened: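 Nitrocefin hydrolysis (100 μM final, A486 read for 10 min) by purified VIM-2 after a 15-min, 37° C enzyme–inhibitor preincubation. IC50 is the concentration halving initial hydrolysis rate, derived from percent inhibition against no-inhibitor wells.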

[3] = system: K. pneumoniae expressing the class A carbapenemase KPC-2 and the class B carbapenemase VIM-4; assay: Broth microdilution MIC assay with meropenem, K. pneumoniae KPC-2 and VIM-4; type: cell-based; conditions: Fixed Mero (meropenem) 4 μg/mL; K. p. A-1797 KPC-2 VIM-4
Procedure, shortened: as §1

[4] = system: E. coli expressing the Class A Extended Spectrum Beta-Lactamase (ESBL) CTX-M-15; assay: Broth microdilution MIC assay with ceftazidime, E. coli CTX-M-15; type: cell-based; conditions: Fixed CAZ (ceftazidime) 4 μg/mL; E. coli ESBL4 CTX-M-15
Procedure, shortened: as §1

[5] = target: T2, KPC-2 (Klebsiella pneumoniae, UniProt Q9F663); assay: β-lactamase enzyme inhibition assay, KPC-2 (imipenem substrate); type: biochemical; conditions: Class A; imipenem substrate, 300 nm; read-out: KPC-2
T2 construct: made in house; host or cells: E. coli BL21(DE3)
Procedure, shortened: (§2)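 Compounds are mixed with purified, untagged recombinant β-lactamase and held 15 min at 37 °C. Substrate is then added: nitrocefin (100 μM final) for OXA-1, imipenem for KPC-2, cefotaxime for SHV-5. Absorbance is followed immediately, and percent inhibition per concentration gives the IC50.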

[6] = target: OXA-48 (UniProt Q6XEC0); assay: β-lactamase enzyme inhibition assay, Class D oxacillinase; type: biochemical; conditions: read-out: OXA-48
[7] = system: K. pneumoniae expressing the Class A carbapenemase KPC-2; assay: Broth microdilution MIC assay with meropenem, K. pneumoniae KPC-2; type: cell-based; conditions: Fixed Mero (meropenem) 4 μg/mL; K. p. 156319 KPC-3
Procedure, shortened: as §1

[8] = system: E. cloacae expressing the Class C P99; assay: Broth microdilution MIC assay with ceftazidime, E. cloacae P99; type: cell-based; conditions: Fixed CAZ (ceftazidime) 4 μg/mL; E. cl. 144200 p99 AmpC
Procedure, shortened: as §1

[9] = target: T3, AmpC (Enterobacter cloacae, UniProt P05364); assay: β-lactamase enzyme inhibition assay, p99 AmpC (nitrocefin substrate); type: biochemical
T3 construct: made in house; host or cells: E. coli BL21(DE3)
Procedure, shortened: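 Compounds are mixed with purified, untagged recombinant β-lactamase and held 15 min at 37 °C. Substrate is then added. Absorbance is followed immediately, and percent inhibition per concentration gives the IC50.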

[10] = system: P. aeruginosa expressing the Class B carbapenemase VIM-2; assay: Broth microdilution MIC assay with meropenem, P. aeruginosa VIM-2; type: cell-based; conditions: Fixed Mero (meropenem) 4 μg/mL; P. aerug. 2775 VIM-2
Procedure, shortened: as §1

[11] = target: T4, SHV-5 (Klebsiella pneumoniae, UniProt P0A3M1); assay: β-lactamase enzyme inhibition assay, SHV-5 (cefotaxime substrate); type: biochemical
T4 construct: made in house; host or cells: E. coli BL21(DE3)
Procedure, shortened: as §2

T4 sequence (P0A3M1 22-286): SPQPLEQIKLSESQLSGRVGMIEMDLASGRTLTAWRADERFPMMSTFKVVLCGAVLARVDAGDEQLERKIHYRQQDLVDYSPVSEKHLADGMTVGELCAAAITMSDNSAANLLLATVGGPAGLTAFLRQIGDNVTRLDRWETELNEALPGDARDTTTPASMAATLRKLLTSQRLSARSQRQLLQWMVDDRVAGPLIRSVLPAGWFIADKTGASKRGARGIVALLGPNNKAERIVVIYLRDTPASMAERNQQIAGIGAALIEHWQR
T2 sequence (Q9F663 25-293, looked up): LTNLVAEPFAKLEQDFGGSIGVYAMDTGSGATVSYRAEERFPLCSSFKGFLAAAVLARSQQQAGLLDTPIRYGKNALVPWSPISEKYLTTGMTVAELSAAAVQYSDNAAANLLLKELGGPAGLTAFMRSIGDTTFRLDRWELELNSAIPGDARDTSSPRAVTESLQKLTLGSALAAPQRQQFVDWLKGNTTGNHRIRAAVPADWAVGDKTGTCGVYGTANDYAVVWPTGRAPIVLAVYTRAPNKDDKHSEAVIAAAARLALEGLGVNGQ
T3 sequence (P05364 21-381): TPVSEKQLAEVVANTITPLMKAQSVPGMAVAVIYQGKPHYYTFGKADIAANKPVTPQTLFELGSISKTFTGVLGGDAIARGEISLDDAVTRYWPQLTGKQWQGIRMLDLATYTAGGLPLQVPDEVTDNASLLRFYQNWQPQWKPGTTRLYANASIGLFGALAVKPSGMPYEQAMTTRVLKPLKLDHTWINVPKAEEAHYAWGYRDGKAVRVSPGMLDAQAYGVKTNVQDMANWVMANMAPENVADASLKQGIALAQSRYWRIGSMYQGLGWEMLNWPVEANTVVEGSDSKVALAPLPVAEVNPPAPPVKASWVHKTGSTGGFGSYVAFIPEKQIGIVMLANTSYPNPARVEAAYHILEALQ

Row | Structure (SMILES) | MIC (μg/mL) of Exemplary Compounds in presence of fixed β-lactams: K. p. 11978 OXA-48 [1] | pIC50 [2] | MIC (μg/mL) of Exemplary Compounds in presence of fixed β-lactams: K. p. A-1797 KPC-2 VIM-4 [3] | MIC (μg/mL) of Exemplary Compounds in presence of fixed β-lactams: E. coli ESBL4 CTX-M-15 [4] | pIC50 [5] | pIC50 [6] | MIC (μg/mL) of Exemplary Compounds in presence of fixed β-lactams: K. p. 156319 KPC-3 [7] | MIC (μg/mL) of Exemplary Compounds in presence of fixed β-lactams: E. cl. 144200 p99 AmpC [8] | pIC50 [9] | MIC (μg/mL) of Exemplary Compounds in presence of fixed β-lactams: P. aerug. 2775 VIM-2 [10] | pIC50 [11]
1 | Nc1n[nH]c2ncc(-c3cn(CC(=O)N[C@H]4Cc5cccc(C(=O)O)c5OB4O)nn3)cc12 [Example 36] | B (B represents an MIC between 1 and 16 μg/mL inclusive) | 5.00 to 6.00 | A (A represents an MIC>16 μg/mL) | C (C represents an MIC of <1 μg/mL) | > 7.00 | 6.00 to 7.00 | B (B represents an MIC between 1 and 16 μg/mL inclusive) | C (C represents an MIC of <1 μg/mL) | > 7.00 | B (B represents an MIC between 1 and 16 μg/mL inclusive) | > 7.00
2 | NCc1ccc(-c2cn(CC(=O)N[C@H]3Cc4cccc(C(=O)O)c4OB3O)nn2)cn1 [Example 75, (R)-3-(2-(4-(6-(aminomethyl)pyridin-3-yl)-1H-1,2,3-triazol-1-yl)acetamido)-2-hydroxy-3,4-dihydro-2H-benzo[e][1,2]oxaborinine-8-carboxylic acid] | B (B represents an MIC between 1 and 16 μg/mL inclusive) | 6.00 to 7.00 | B (B represents an MIC between 1 and 16 μg/mL inclusive) | C (C represents an MIC of <1 μg/mL) | 6.00 to 7.00 | 6.00 to 7.00 | C (C represents an MIC of <1 μg/mL) | C (C represents an MIC of <1 μg/mL) | > 7.00 | B (B represents an MIC between 1 and 16 μg/mL inclusive) | > 7.00
3 | O=C(Cc1cn2ccsc2n1)N[C@H]1Cc2cccc(C(=O)O)c2OB1O [Example 78, (R)-2-hydroxy-3-(2-(imidazo[2,1-b]thiazol-6-yl)acetamido)-3,4-dihydro-2H-benzo[e][1,2]oxaborinine-8-carboxylic acid] | B (B represents an MIC between 1 and 16 μg/mL inclusive) | 6.00 to 7.00 | A (A represents an MIC>16 μg/mL) | C (C represents an MIC of <1 μg/mL) | > 7.00 | > 7.00 | B (B represents an MIC between 1 and 16 μg/mL inclusive) | C (C represents an MIC of <1 μg/mL) | > 7.00 | B (B represents an MIC between 1 and 16 μg/mL inclusive) | > 7.00
4 | O=C(Cn1cc(C(=O)NC2CNC2)nn1)N[C@H]1Cc2cccc(C(=O)O)c2OB1O [Example 88, (R)-3-(2-(4-(azetidin-3-ylcarbamoyl)-1H-1,2,3-triazol-1-yl)acetamido)-2-hydroxy-3,4-dihydro-2H-benzo[e][1,2]oxaborinine-8-carboxylic acid] | B (B represents an MIC between 1 and 16 μg/mL inclusive) | > 7.00 | C (C represents an MIC of <1 μg/mL) | C (C represents an MIC of <1 μg/mL) | > 7.00 | 5.00 to 6.00 | B (B represents an MIC between 1 and 16 μg/mL inclusive) | C (C represents an MIC of <1 μg/mL) | > 7.00 | C (C represents an MIC of <1 μg/mL) | 6.00 to 7.00
5 | O=C(Cn1cc(-c2ccsc2)nn1)N[C@H]1Cc2cccc(C(=O)O)c2OB1O [Example 29, (R)-2-hydroxy-3-(2-(4-(thiophen-3-yl)-1H-1,2,3-triazol-1-yl)acetamido)-3,4-dihydro-2H-benzo[e][1,2]oxaborinine-8-carboxylic acid] | B (B represents an MIC between 1 and 16 μg/mL inclusive) | 6.00 to 7.00 | B (B represents an MIC between 1 and 16 μg/mL inclusive) | C (C represents an MIC of <1 μg/mL) | > 7.00 | 6.00 to 7.00 | B (B represents an MIC between 1 and 16 μg/mL inclusive) | C (C represents an MIC of <1 μg/mL) | > 7.00 | B (B represents an MIC between 1 and 16 μg/mL inclusive) | > 7.00
6 | NCc1nnc(CC(=O)N[C@H]2Cc3cccc(C(=O)O)c3OB2O)[nH]1 [Example 23, (R)-3-(2-(5-(aminomethyl)-4H-1,2,4-triazol-3-yl)acetamido)-2-hydroxy-3,4-dihydro-2H-benzo[e][1,2]oxaborinine-8-carboxylic acid] | B (B represents an MIC between 1 and 16 μg/mL inclusive) | 6.00 to 7.00 | B (B represents an MIC between 1 and 16 μg/mL inclusive) | C (C represents an MIC of <1 μg/mL) | > 7.00 | 6.00 to 7.00 | C (C represents an MIC of <1 μg/mL) | C (C represents an MIC of <1 μg/mL) | > 7.00 | C (C represents an MIC of <1 μg/mL) | > 7.00
7 | O=C(Cn1cc(-c2cccnc2)nn1)N[C@H]1Cc2cccc(C(=O)O)c2OB1O [Example 12, (R)-2-hydroxy-3-(2-(4-(pyridin-3-yl)-1H-1,2,3-triazol-1-yl)acetamido)-3,4-dihydro-2H-benzo[e][1,2]oxaborinine-8-carboxylic acid] | B (B represents an MIC between 1 and 16 μg/mL inclusive) | 5.00 to 6.00 | A (A represents an MIC>16 μg/mL) | C (C represents an MIC of <1 μg/mL) | > 7.00 | 6.00 to 7.00 | B (B represents an MIC between 1 and 16 μg/mL inclusive) | C (C represents an MIC of <1 μg/mL) | > 7.00 | B (B represents an MIC between 1 and 16 μg/mL inclusive) | > 7.00
8 | N=CNCCn1nnnc1CC(=O)N[C@H]1Cc2cccc(C(=O)O)c2OB1O [Example 104, (R)-3-(2-(1-(2-formimidamidoethyl)-1H-tetrazol-5-yl)acetamido)-2-hydroxy-3,4-dihydro-2H-benzo[e][1,2]oxaborinine-8-carboxylic acid] | C (C represents an MIC of <1 μg/mL) | 6.00 to 7.00 | C (C represents an MIC of <1 μg/mL) | C (C represents an MIC of <1 μg/mL) | > 7.00 | 6.00 to 7.00 | C (C represents an MIC of <1 μg/mL) | C (C represents an MIC of <1 μg/mL) | > 7.00 | C (C represents an MIC of <1 μg/mL) | > 7.00
